What was measured:
[1] = tested on: gastric adenocarcinoma (SGC-7901) cells; test: MTT antiproliferative assay, SGC-7901; format: cell-based, human; conditions: mean±SD of 3 experiments
Method: (§1) In vitro antiproliferative activity against three human tumor cell lines, including gastric adenocarcinoma (SGC-7901), oral carcinoma (KB) and fibrosarcoma (HT-1080), was evaluated using the MTT assay with cis-platinum (Cpt) as the positive control.
(§2) The antiproliferative activity of the synthetic compounds was measured by 3-(4, 5- dimethylthiazol-2-yl)-2, 5-diphenyltetrazolium bromide (MTT) assay. Cells were seeded in 96-well plates (Corning, NY, USA) at a density of 8×10^3 per well. After 24 h of incubation, cells were treated with different concentrations (0.1, 0.3, 1, 3 and 10 μg/ml) of the EM-A dimers for the indicated time periods. Afterwards, MTT (Sigma, St. Louis, MO) solution [5.0 mg/ml in phosphate-buffered saline (PBS)] was added (20 μl/well) and incubated for another 4 h at 37°C. The purple formazan crystals were then dissolved in 100 μl dimethyl sulfoxide (DMSO). After 5 min, the plates were read on a plate microreader (TECANSPECTRA, Wetzlar, Germanay) at 490 nm. The IC50 values were obtained using the software of Dose–Effect Analysis with Microcomputers and were defined as concentration of drug causing 50% inhibition in absorbance compared with control cells. Assays were performed in triplicate from three independent experiments.

[2] = tested on: oral carcinoma (KB) cells; test: MTT antiproliferative assay, KB; format: cell-based, human; conditions: 24 h of drug exposure, mean±SD of 3 experiments
Method: as §1, §2

[3] = tested on: fibrosarcoma (HT-1080) cells; test: MTT antiproliferative assay, HT-1080; format: cell-based, human; conditions: mean±SD of 3 experiments
Method: as §1, §2

[4] = tested on: normal mouse fibroblast cells (L929); test: MTT assay, toxicity against normal fibroblasts L929; format: cell-based
Method: as §2

[5] = tested on: gastric carcinoma (BGC-823) cells; test: MTT antiproliferative assay, BGC-823; format: cell-based, human; conditions: 24 h of drug exposure, mean±SD of 3 experiments
Method: (§3) All cell lines were purchased from American Type Culture Collection (ATCC, Manassas, VA, USA). Non-small cell lung carcinoma cells (A549), hepatocellular carcinoma cells (HepG-2) and breast carcinoma cells (MCF-7) were cultured in DMEM medium (Sigma, St. Louis, MO, USA), while gastric carcinoma cells (BGC-823), laryngeal carcinoma cells (Hep2), cervical carcinoma cells (HeLa) were cultured in RPMI-1640 medium (Sigma, St. Louis, MO, USA), which were supplemented with 10% fetal bovine serum (FBS; TBD, Tianjin, China) at 37°C in humidified atmosphere with 5% CO2.
as §2, with “The IC50 values were obtained using the software of Dose–Effect Analysis with Microcomputers and were defined as concentration of drug causing 50% inhibition in absorbance compared with control cells. Assays were performed in triplicate from three independent experiments.” left out

[6] = tested on: non-small cell lung carcinoma (A549) cells; test: MTT antiproliferative assay, A549; format: cell-based, human; conditions: 24 h of drug exposure, mean±SD of 3 experiments
Method: as §3
as §2, with “The IC50 values were obtained using the software of Dose–Effect Analysis with Microcomputers and were defined as concentration of drug causing 50% inhibition in absorbance compared with control cells. Assays were performed in triplicate from three independent experiments.” left out

[7] = tested on: hepatocellular carcinoma (HepG-2) cells; test: MTT antiproliferative assay, HepG-2; format: cell-based, human; conditions: 24 h of drug exposure, mean±SD of 3 experiments
Method: as §3
as §2, with “The IC50 values were obtained using the software of Dose–Effect Analysis with Microcomputers and were defined as concentration of drug causing 50% inhibition in absorbance compared with control cells. Assays were performed in triplicate from three independent experiments.” left out

[8] = tested on: laryngeal carcinoma (Hep2) cells; test: MTT antiproliferative assay, Hep2; format: cell-based, human; conditions: 24 h of drug exposure, mean±SD of 3 experiments
Method: as §3
as §2, with “The IC50 values were obtained using the software of Dose–Effect Analysis with Microcomputers and were defined as concentration of drug causing 50% inhibition in absorbance compared with control cells. Assays were performed in triplicate from three independent experiments.” left out

[9] = tested on: cervical carcinoma (HeLa) cells; test: MTT antiproliferative assay, HeLa; format: cell-based, human; conditions: 24 h of drug exposure, mean±SD of 3 experiments
Method: as §3
as §2, with “The IC50 values were obtained using the software of Dose–Effect Analysis with Microcomputers and were defined as concentration of drug causing 50% inhibition in absorbance compared with control cells. Assays were performed in triplicate from three independent experiments.” left out

[10] = tested on: breast carcinoma (MCF-7) cells; test: MTT antiproliferative assay, MCF-7; format: cell-based, human; conditions: 24 h of drug exposure, mean±SD of 3 experiments
Method: as §3
as §2, with “The IC50 values were obtained using the software of Dose–Effect Analysis with Microcomputers and were defined as concentration of drug causing 50% inhibition in absorbance compared with control cells. Assays were performed in triplicate from three independent experiments.” left out

[11] = tested on: Hela cells; test: Flow cytometry cell cycle analysis (PI), Hela; format: cell-based, human; conditions: 1b 24 h
Method: (§4) To understand the mechanism driving the antiproliferative activity of the prepared compounds, we analyzed using flow cytometry the cell cycles of Hela and MCF-7 treated for 24h with the selected active compound 1b at 0.5, 1.0 and 2.0μM concentrations (Fig 2B). […] The percentage of apoptotic cells depended on the concentration of 1b.
(§5) Cells were dispensed in 25 ml culture bottle at a density of 5 ×10^5 per bottle. After 24 h incubation, they were treated with compound 1b at given concentrations for 24h. The cells were harvested by 0.05% trypsin (Sigma, St. Louis, MO), then collected by centrifugation, washed with PBS, and fixed with 10 ml ice-cold 70% ethanol at 4°C overnight. After washed with PBS, the cells were suspended in 1ml propidium iodide (PI; 50 mg/L; Sigma, St. Louis, MO) solution supplemented with 1 g/L RNase A (Sigma, St. Louis, MO). Finally, the samples were analyzed by FACScan flow cytometer (Becton Dickinson, Franklin, NJ, USA).

[12] = tested on: MCF-7 cells; test: Flow cytometry cell cycle analysis (PI), MCF-7; format: cell-based, human; conditions: MCF-7, 1b 24 h
Method: as §4, §5

[13] = tested on: Hela cells; test: Annexin V-FITC/PI apoptosis analysis, Hela; format: cell-based, human; conditions: 2.5 μM, 24 h (control 4.68%)
Method: (§6) The majority of cells (Hela, 88.44% and MCF-7 89.30%) in the control samples were viable and non-apoptotic. […] In addition, an increase in the Annexin V+PI+ population was also observed which indicates late apoptotic or dead cells.
(§7) Cell apoptosis was determined using AnnexinV-FITC/PI Assay Kit according to the manufacturers’ protocols. Briefly, cells were seeded in 6-well plates at a density of 1.2×10^5 (MCF-7) or 1.5×10^5 (HeLa) per well and incubated for 24 h. Then, cells were treated with 0, 0.5, 1.5 or 2.5 μM 1b for 24h. After washed with PBS twice, cells were re-suspended in 100 μL binding buffer containing 5 μL AnnexinV-FITC and 5 μL PI. Following 10 min of incubation, cells were detected by FACScan flow cytometer.

[14] = tested on: MCF-7 cells; test: Annexin V-FITC/PI apoptosis analysis, MCF-7; format: cell-based, human; conditions: MCF-7, 2.5 μM, 24 h (control 3.28%)
Method: as §6, §7

[15] = tested on: Hela cells; test: Mitochondrial potential assay (Rhodamine 123), HeLa; format: cell-based, human; conditions: 24 h
Method: Mitochondria play a key role in the process of apoptosis. After treatment with 1b for 24h and stained with Rhodamine 123, the mitochondrial membrane potential (Δψm) changes in HeLa and MCF-7 cells were observed by flow cytometer.
Cells were seeded in 6-well plates at a density of 0.8×10^5 (MCF-7) or 1.0×10^5 (HeLa) per well. After 24 h of incubation, cells were treated with 0, 0.5, 1.5 or 2.5 μM 1b for another 24h. Subsequently, cells were washed with PBS twice, incubated with 1 μg/mL Rhodamine 123 in 1 mL PBS at 37°C for 30 min, and analyzed by FACScan flow cytometer.

[16] = tested on: Bax, Bcl-2, cyt c, Caspase-3 in HeLa cells; test: Western blot analysis of apoptotic proteins, HeLa; format: cell-based, human; conditions: 24 h
Method: (§8) Bax and Bcl-2 proteins are two key apoptosis regulators of Bcl-2 family that govern mitochondrial outer membrane permeabilization (MOMP). To investigate the effects of 1b on Bax and Bcl-2 expressions and its association with cell apoptosis and proliferation, HeLa and MCF-7 cells were treated with different concentration of 1b for 24h before western blot analysis (Fig 6). […] Treatment with 1b led to Δψm depolarization, MOMP enhancing and pro-apoptotic proteins release.
(§9) Cytochrome complex (cyt c) and Caspase-3 play important roles in the process of cell apoptosis. In our case, the effects of 1b on the expression of cyt c and Caspase-3 were examined by treatment of HeLa and MCF-7 cells with different concentration of 1b. […] Treatment with 1b promoted the translocation of cyt c from the mitochondria to cytoplasm. In addition, the amount of 17 kDa cleaved Caspase-3 increased, accompanying with the reducing of zymogen.
(§10) Cells were seeded in 75 mL culture flask at a density of 8 ×10^5 (MCF-7) or 1.2×10^6 (HeLa) and incubated for 24 h. Thereafter, cells were treated with 0, 0.5, 1.5 or 2.5 μM 1b for 24h and harvested by trypsin into the EP tubes.
(§11) For total protein extraction, the cell pellets were lysed in RIPA buffer (Beyotime) supplemented with PMSF on ice for 30 min. After centrifuging at 12000 g for 10 min at 4°C, the cell suspension was collected as the whole cell protein. Cytoplasmic proteins and mitochondrial proteins were extracted from cells using Cell Mitochondria Isolation Kit according to the instructions of manufacturer. The protein concentrations were quantified with BCA Protein Assay Kit (Beyotime) and a plate reader according to the manufacturer’s protocols.
(§12) For western blot analysis, equal protein lysates were separated by electrophoresis on 12% SDS-PAGE gels, and transferred onto PVDF membranes. After blocking with 5% non-fat milk in PBS for 2.5 h at room temperature, the membranes were incubated with primary antibody overnight at 4°C: Bax (1:2000), Bcl-2 (1:1000), Caspase-3 (1:500), Cytochrome c (1:500), and β-actin (1:3000). Then, the blots were washed three times for 10 min each in Tris-NaCl and incubated with secondary HRP-conjugated goat anti-mouse or anti-rabbit IgGs (1:6000 or 1:5000) for 2.5 h at 37°C. The interest proteins were visualized using ECL, and β-actin served as the internal control.

[17] = tested on: Bax, Bcl-2, cyt c, Caspase-3 in MCF-7 cells; test: Western blot analysis of apoptotic proteins, MCF-7; format: cell-based, human; conditions: 24 h
Method: as §8, §9, §10, §11, §12

[18] = Homo sapiens, SGC-7901, 24 h of drug exposure
[19] = Homo sapiens, HT-1080, 24 h of drug exposure
[20] = HeLa, 0.5, 1.5, 2.5 μM, vs control, dose-dependent, P<0.01
[21] = MCF-7, 0.5, 1.5, 2.5 μM, vs control, dose-dependent, P<0.01

CCC1OC(=O)C(C)C(O)C(C)C(OC2OC(C)CC(N(C)CC=CCN(C)C3CC(C)OC(OC4C(C)C(OC5CC(C)(OC)C(O)C(C)O5)C(C)C(=O)OC(CC)C(C)(O)C(O)C(C)C(=O)C(C)CC4(C)OC)C3O)C2O)C(C)(OC)CC(C)C(=O)C(C)C(O)C1(C)O (centres unmarked) [Compound 1i]
IC50 [1, 18]: 27.1 ± 2.2 µM
IC50 ([2]; Homo sapiens, KB): 3.1 ± 0.3 µM
IC50 [3, 19]: 11.9 ± 0.8 µM
IC50 ([4]; L929, 24 h of drug exposure): > 100 µM

N.N.[Cl][Pt][Cl] [Cpt, cis-platinum]
IC50 ([1]; 24 h of drug exposure): 4.9 ± 0.4 µM
IC50 [2]: 4.7 ± 0.3 µM
IC50 ([3]; 24 h of drug exposure): 19.7 ± 1.5 µM
IC50 ([4]; 24 h of drug exposure): 18.5 µM
IC50 [5]: 11.8 ± 0.2 µM
IC50 [6]: 5.8 ± 0.2 µM
IC50 [7]: 4.7 ± 0.4 µM
IC50 [8]: 12.3 ± 1.3 µM
IC50 [9]: 17.4 ± 1.4 µM
IC50 [10]: 2.9 ± 0.1 µM

CCC1OC(=O)C(C)C(OC2CC(C)(OC)C(O)C(C)O2)C(C)C(OC2OC(C)CC(N(C)CC=CCN(C)C3CC(C)OC(OC4C(C)C(OC5CC(C)(OC)C(O)C(C)O5)C(C)C(=O)OC(CC)C(C)(O)C(O)C(C)C(=O)C(C)CC4(C)OC)C3O)C2O)C(C)(OC)CC(C)C(=O)C(C)C(O)C1(C)O (centres unmarked) [Compound 1b]
percentage of SubG1 peaks ([11]; highest concentration (control 2.28%)): 20.06%
percentage of G0/G1 peaks ([11]; highest concentration (control 55%)): 35%
percentage of SubG1 peaks ([12]; highest concentration (control 3.62%)): 22.51%
percentage of G0/G1 peaks ([12]; highest concentration (control 61%)): 45%
early apoptotic cell population (lower right) [13]: 30.30%
early apoptotic cell population (lower right) [14]: 54.84%
mitochondrial membrane potential (Rhodamine 123) ([15]; 0.5 μM): 74.17%
mitochondrial membrane potential (Rhodamine 123) ([15]; 2.5 μM): 1.00%
BCL-2 expression [16, 20]: decreased
Bax expression [16, 20]: significantly increased
amount of 17 kDa cleaved Caspase-3 ([16]; HeLa, 0.5 to 2.5 μM): increased
expression of cyt c in the cytoplasm ([16]; HeLa, concentration increased from 0.5 to 2.5 μM): increased
BCL-2 expression [17, 21]: decreased
Bax expression [17, 21]: significantly increased
amount of 17 kDa cleaved Caspase-3 ([17]; MCF-7, 0.5 to 2.5 μM): increased
expression of cyt c in the cytoplasm ([17]; MCF-7, concentration increased from 0.5 to 2.5 μM): increased

CC[C@H]1OC(=O)[C@H](C)[C@@H](O[C@H]2C[C@@](C)(OC)[C@@H](O)[C@H](C)O2)[C@H](C)[C@@H](O[C@@H]2O[C@H](C)C[C@H](N(C)C)[C@H]2O)[C@](C)(OC)C[C@@H](C)C(=O)[C@H](C)[C@@H](O)[C@]1(C)O [clarithromycin, reference compound]
IC50 [1, 18]: > 100 µM
IC50 ([2]; Homo sapiens, KB): > 100 µM
IC50 [3, 19]: > 100 µM
IC50 ([4]; L929, 24 h of drug exposure): > 100 µM

CCC1OC(=O)C(C)C(O)C(C)C(OC2OC(C)CC(N(C)CC=CCN(C)C3CC(C)OC(OC4C(C)C(OC5CC(C)(OC)C(O)C(C)O5)C(C)C(=O)OC(CC)C(C)(O)C(O)C(C)C(=NO)C(C)CC4(C)OC)C3O)C2O)C(C)(OC)CC(C)C(=NO)C(C)C(O)C1(C)O (centres unmarked) [Compound 1j]
IC50 [1, 18]: 30.6 ± 2.8 µM
IC50 ([2]; Homo sapiens, KB): 26.4 ± 2.4 µM
IC50 [3, 19]: 23.7 ± 2.2 µM
IC50 ([4]; L929, 24 h of drug exposure): > 100 µM
